Among the data in patent US20180065917A1, “IMMUNE CHECKPOINT INHIBITORS, COMPOSITIONS AND METHODS THEREOF” (Polaris Pharmaceuticals, Inc., priority 2016, published 2018) are melting point and IC50 values, retold here.

In data set [1] the target is T1, PD-L1/PD-1 complex formation (Homo sapiens, UniProt Q9NZQ7).
T1 construct: purchased BPS Bioscience
In words: PD-L1/PD-1 Interaction Assay (ELISA platform). The data set is classed as binding. As to conditions: human PD-1-Fc coated plates, PD-L1-Fc-biotin 0.1 μg/ml, compounds pre-incubated 2 hours. The procedure:
The ability of compounds to block PD-L1/PD-1 complex formation was evaluated using biochemical interaction assay based on the ELISA platform.
EIA/RIA high binding 96-well plates (Costar) were coated with human PD-1-Fc protein diluted in PBS to 0.5 μg/ml overnight at 4° C. The PD-1-Fc coated plates were washed in PBST and blocked in blocking buffer (2% BSA in PBST). Serially diluted compounds were pre-incubated with PD-L1-Fc-biotin (0.1 μg/ml final) for 2 hours on a shaker at room temperature. The PD-1-Fc coated plates were washed with PBST and solutions containing PD-L1 and compounds were added to the plates. The PD-1-Fc coated plates were incubated with PD-L1 and compound solution for 2 hours on a shaker at room temperature. After the incubation unbound PD-L1 was washed away with PBST and plates were incubated with the blocking buffer for 10 minutes. The bound PD-L1-Fc-biotin was detected with streptavidin-HRP and TMB substrate. The plates were read at OD450 nm in a plate reader (i3 from Molecular Devices) and percentages of inhibition of PD-L1/PD-1 complex formation were calculated.
PD-1-Fc protein was made at Polaris and PD-L1-Fc was purchased from BPS Bioscience.
On the technique in general: ELISA stands for enzyme-linked immunosorbent assay.

Molecules are shown by their SMILES. Structures can show the parent of a compound that is named as a salt.

T1 sequence (Q9NZQ7 19-239 limits assumed, one chain of several): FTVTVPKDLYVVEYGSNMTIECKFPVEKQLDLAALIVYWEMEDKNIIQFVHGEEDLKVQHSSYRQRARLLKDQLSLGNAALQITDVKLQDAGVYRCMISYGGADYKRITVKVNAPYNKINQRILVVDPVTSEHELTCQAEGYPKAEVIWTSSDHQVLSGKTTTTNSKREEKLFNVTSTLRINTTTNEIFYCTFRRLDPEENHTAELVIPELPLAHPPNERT

Broadly, the melting point is the temperature, or range, at which the solid turns liquid. A word on the IC50: it is the midpoint of a concentration-inhibition curve. Low readings indicate greater potency, high ones weaker potency. Turning to `COc1cc(CN2CCCC[C@H]2C(=O)O)ccc1OCc1cccc(-c2cccc(COc3ccc(CN4CCCC[C@H]4C(=O)O)cc3OC)c2C)c1C` [Example 20, (2S,2′S)-1,1′-(((((2,2′-Dimethyl-[1,1′-biphenyl]-3,3′-diyl)bis(methylene))bis(oxy))bis(3-methoxy-4,1-phenylene))bis(methylene))bis(piperidine-2-carboxylic acid)], the melting point lay within 192 to 196 °C. In addition, the IC50 in data set [1] lay in the range of 1010 to 30000 nM.
In turn, `O=C(O)[C@@H]1CCCCN1Cc1ccc(OCc2cccc(-c3cccc(COc4ccc(CN5CCCC[C@H]5C(=O)O)cc4Br)c3Cl)c2Cl)c(Br)c1` [Example 9, (2S,2′S)-1,1′-(((((2,2′-Dichloro-[1,1′-biphenyl]-3,3′-diyl)bis(methylene))bis(oxy))bis(3-bromo-4,1-phenylene))bis(methylene))bis(piperidine-2-carboxylic acid)] came in with a melting point of 184 to 188 °C. The same compound gave an IC50 in data set [1] of 0.1 to 10 nM.
In turn, `COc1cc(OCc2cccc(-c3cccc(COc4cc(OC)c(CNCCO)c(OC)c4)c3C)c2C)cc(OC)c1CNCCO` [Example 22, 2,2′-((((((2,2′-Dimethyl-[1,1′-biphenyl]-3,3′-diyl)bis(methylene))bis(oxy))bis(2,6-dimethoxy-4,1-phenylene))bis(methylene))bis(azanediyl))bis(ethan-1-ol)] returned a melting point of 86 to 90 °C. For the same compound, in data set [1], the concentration for half-maximal inhibition (IC50) lay within 11 to 100 nM.
In turn, `Cc1c(COc2ccc(CN[C@@H](C(=O)O)[C@H](C)O)cc2Br)cccc1-c1cccc(COc2ccc(CN[C@@H](C(=O)O)[C@H](C)O)cc2Br)c1C` (as salt: trifluoroacetic acid salt) [Example 18, (2R,2′R,3S,3′S)-2,2′-((((((2,2′-Dimethyl-[1,1′-biphenyl]-3,3′-diyl)bis(methylene))bis(oxy))bis(3-bromo-4,1-phenylene))bis(methylene))bis(azanediyl))bis(3-hydroxybutanoic acid) di-trifluoroacetic acid salt] returned a melting point of 227 to 231 °C.
`O=C(O)[C@@H]1CCCCN1Cc1ccc(OCc2cccc(-c3cccc(COc4ccc(CN5CCCC[C@H]5C(=O)O)cc4Br)c3)c2)c(Br)c1` [Example 8, (2S,2′S)-1,1′-(((([1,1′-Biphenyl]-3,3′-diylbis(methylene))bis(oxy))bis(3-bromo-4,1-phenylene))bis(methylene))bis(piperidine-2-carboxylic acid)]: the melting point lay within 306 to 310 °C. In data set [1], the IC50 lay in the range of 1010 to 30000 nM.
`Cc1c(COc2ccc(CN3CCCC[C@H]3C(=O)O)cc2C(F)F)cccc1-c1cccc(COc2ccc(CN3CCCC[C@H]3C(=O)O)cc2C(F)F)c1C` (as salt: trifluoroacetic acid salt) [Example 29, (2S,2′S)-1,1′-(((((2,2′-Dimethyl-[1,1′-biphenyl]-3,3′-diyl)bis(methylene))bis(oxy))bis(3-(difluoromethyl)-4,1-phenylene))bis(methylene))bis(piperidine-2-carboxylic acid) di-trifluoroacetic acid salt] registered a melting point of 142 to 146 °C.
For the compound `CSc1cc(CN2CCCC[C@H]2C(=O)O)ccc1OCc1cccc(-c2cccc(COc3ccc(CN4CCCC[C@H]4C(=O)O)cc3SC)c2C)c1C` (as salt: trifluoroacetic acid salt) [Example 28, (2S,2′S)-1,1′-(((((2,2′-Dimethyl-[1,1′-biphenyl]-3,3′-diyl)bis(methylene))bis(oxy))bis(3-(methylthio)-4,1-phenylene))bis(methylene))bis(piperidine-2-carboxylic acid) di-trifluoroacetic acid salt], the melting point lay in the range of 134 to 138 °C.
The compound `O=C(O)[C@@H]1CCCCN1Cc1ccc(OCc2cccc(-c3cccc(COc4ccc(CN5CCCC[C@H]5C(=O)O)cc4Br)c3F)c2F)c(Br)c1` [Example 10, (2S,2′S)-1,1′-(((((2,2′-Difluoro-[1,1′-biphenyl]-3,3′-diyl)bis(methylene))bis(oxy))bis(3-bromo-4,1-phenylene))bis(methylene))bis(piperidine-2-carboxylic acid)] displayed a melting point of 204 to 208 °C. In addition, the IC50 in data set [1] was in the range of 110 to 1000 nM.
In turn, `Cc1cc(CN2CCCC[C@H]2C(=O)O)ccc1OCc1cccc(-c2cccc(COc3ccc(CN4CCCC[C@H]4C(=O)O)cc3C)c2C)c1C` [Example 11, (2S,2′S)-1,1′-(((((2,2′-Dimethyl-[1,1′-biphenyl]-3,3′-diyl)bis(methylene))bis(oxy))bis(3-methyl-4,1-phenylene))bis(methylene))bis(piperidine-2-carboxylic acid)] showed a melting point of 191 to 195 °C. Besides, the IC50 in data set [1] fell in the range of 11 to 100 nM.
Consider `Cc1c(COc2ccc(CN[C@H](C)C(=O)O)cc2Br)cccc1-c1cccc(COc2ccc(CN[C@H](C)C(=O)O)cc2Br)c1C` (as salt: trifluoroacetic acid salt) [Example 16, (2R,2′R)-2,2′-((((((2,2′-Dimethyl-[1,1′-biphenyl]-3,3′-diyl)bis(methylene))bis(oxy))bis(3-bromo-4,1-phenylene))bis(methylene))bis(azanediyl))dipropionic acid di-trifluoroacetic acid salt], for which the melting point was 186 to 190 °C.
As for `Cc1c(COc2ccc(CNC(C)(C)C(=O)O)cc2Br)cccc1-c1cccc(COc2ccc(CNC(C)(C)C(=O)O)cc2Br)c1C` (as salt: trifluoroacetic acid salt) [Example 14, 2,2′-((((((2,2′-Dimethyl-[1,1′-biphenyl]-3,3′-diyl)bis(methylene))bis(oxy))bis(3-bromo-4,1-phenylene))bis(methylene))bis(azanediyl))bis(2-methylpropanoic acid) di-trifluoroacetic acid salt], the melting point lay in the range of 230 to 234 °C.
Regarding `Cc1c(COc2ccc(CN[C@@H](C)C(=O)O)cc2Br)cccc1-c1cccc(COc2ccc(CN[C@@H](C)C(=O)O)cc2Br)c1C` (as salt: trifluoroacetic acid salt) [Example 15, (2S,2′S)-2,2′-((((((2,2′-Dimethyl-[1,1′-biphenyl]-3,3′-diyl)bis(methylene))bis(oxy))bis(3-bromo-4,1-phenylene))bis(methylene))bis(azanediyl))dipropionic acid di-trifluoroacetic acid salt], the melting point is 243 to 247 °C.
Compound `Cc1c(COc2ccc(CN(CCO)CCO)cc2Br)cccc1-c1cccc(COc2ccc(CN(CCO)CCO)cc2Br)c1C` (as salt: trifluoroacetic acid salt) [Example 31, 2,2′,2″,2′″-((((((2,2′-Dimethyl-[1,1′-biphenyl]-3,3′-diyl)bis(methylene))bis(oxy))bis(3-bromo-4,1-phenylene))bis(methylene))bis(azanetriyl))tetrakis(ethan-1-ol) di-trifluoroacetic acid salt] yielded a melting point of 118 to 122 °C.
Consider `C#Cc1cc(CN2CCCC[C@H]2C(=O)O)ccc1OCc1cccc(-c2cccc(COc3ccc(CN4CCCC[C@H]4C(=O)O)cc3C#C)c2C)c1C` (as salt: trifluoroacetic acid salt) [Example 26, (2S,2′S)-1,1′-(((((2,2′-Dimethyl-[1,1′-biphenyl]-3,3′-diyl)bis(methylene))bis(oxy))bis(3-ethynyl-4,1-phenylene))bis(methylene))bis(piperidine-2-carboxylic acid) di-trifluoroacetic acid salt], for which the melting point was 175 °C (dec.).
Same read-out and setting: under `Cc1c(COc2ccc(CNC(CO)CO)cc2Br)cccc1-c1cccc(COc2ccc(CNC(CO)CO)cc2Br)c1C` (as salt: trifluoroacetic acid salt) [Example 32, 2,2′-((((((2,2′-Dimethyl-[1,1′-biphenyl]-3,3′-diyl)bis(methylene))bis(oxy))bis(3-bromo-4,1-phenylene))bis(methylene))bis(azanediyl))bis(propane-1,3-diol) di-trifluoroacetic acid salt] stands 148 to 152 °C; under `Cc1c(COc2ccc(CN3CCCC[C@H]3C(=O)O)cc2C#N)cccc1-c1cccc(COc2ccc(CN3CCCC[C@H]3C(=O)O)cc2C#N)c1C` (as salt: trifluoroacetic acid salt) [Example 34, (2S,2′S)-1,1′-(((((2,2′-dimethyl-[1,1′-biphenyl]-3,3′-diyl)bis(methylene))bis(oxy))bis(3-cyano-4,1-phenylene))bis(methylene))bis(piperidine-2-carboxylic acid) di-trifluoroacetic acid salt], 196 to 200 °C; under `Cc1c(COc2ccc(CN(CC(=O)O)CC(=O)O)cc2Br)cccc1-c1cccc(COc2ccc(CN(CC(=O)O)CC(=O)O)cc2Br)c1C` (as salt: trifluoroacetic acid salt) [Example 30, 2,2′,2″,2′″-((((((2,2′-Dimethyl-[1,1′-biphenyl]-3,3′-diyl)bis(methylene))bis(oxy))bis(3-bromo-4,1-phenylene))bis(methylene))bis(azanetriyl))tetraacetic acid di-trifluoroacetic acid salt], 223 to 227 °C.
For the compound `Cc1c(COc2ccc(CNCCO)cc2Br)cccc1-c1cccc(COc2ccc(CNCCO)cc2Br)c1C` (as salt: trifluoroacetic acid salt) [Example 5, 2,2′-((((((2,2′-Dimethyl-[1,1′-biphenyl]-3,3′-diyl)bis(methylene))bis(oxy))bis(3-bromo-4,1-phenylene))bis(methylene))bis(azanediyl))bis(ethan-1-ol) di-trifluoroacetic acid salt], the melting point was in the range of 136 to 140 °C.
